In US9156788B2, “TRPV3 modulators” (AbbVie Inc., priority 2010, dated 2015) one finds IC50 data, which are given here for 14 molecules.

One may read the IC50 as the point on the concentration scale where inhibition reaches its midpoint.

The target of this assay is T1, human TRPV3 (Homo sapiens, UniProt Q8NET8).
T1 construct: expressed in transfected cells
T1 sequence (Q8NET8 1-790): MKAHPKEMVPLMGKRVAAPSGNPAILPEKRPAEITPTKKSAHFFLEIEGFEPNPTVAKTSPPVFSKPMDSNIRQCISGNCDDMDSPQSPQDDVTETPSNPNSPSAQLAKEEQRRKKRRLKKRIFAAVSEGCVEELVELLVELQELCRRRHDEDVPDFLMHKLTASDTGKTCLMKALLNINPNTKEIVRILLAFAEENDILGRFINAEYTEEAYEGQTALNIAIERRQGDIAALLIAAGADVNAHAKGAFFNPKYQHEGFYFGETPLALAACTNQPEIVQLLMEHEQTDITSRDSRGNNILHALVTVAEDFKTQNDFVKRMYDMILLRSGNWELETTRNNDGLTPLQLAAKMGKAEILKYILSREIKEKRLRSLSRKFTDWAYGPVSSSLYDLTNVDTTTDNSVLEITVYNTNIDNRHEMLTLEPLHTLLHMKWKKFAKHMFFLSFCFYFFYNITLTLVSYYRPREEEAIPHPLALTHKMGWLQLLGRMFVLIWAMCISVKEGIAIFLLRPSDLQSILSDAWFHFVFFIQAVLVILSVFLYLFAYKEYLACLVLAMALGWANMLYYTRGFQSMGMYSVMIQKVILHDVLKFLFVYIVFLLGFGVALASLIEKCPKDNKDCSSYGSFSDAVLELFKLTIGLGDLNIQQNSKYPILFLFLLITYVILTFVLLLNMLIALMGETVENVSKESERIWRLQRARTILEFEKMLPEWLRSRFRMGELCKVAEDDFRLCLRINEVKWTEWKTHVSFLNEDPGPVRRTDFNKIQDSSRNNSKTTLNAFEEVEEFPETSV
Put plainly: Calcium flux assay (FLIPR TETRA), inhibition of 2-APB response. The assay is classed as cell-based. The following applies: recombinant HEK293 cells stably expressing human TRPV3; 2-APB at its EC50. The protocol:
(i) In Vitro Methods-Calcium Flux Assays:
Experiments were conducted using the FLIPR^TETRA®. On the day prior to the experiment, recombinant HEK293 cells that stably express human and mouse TRPV3 were removed from tissue culture flasks and plated in growth medium at 20,000 cells/well into black-walled clear-bottom 384-well Biocoat™ poly-D-lysine assay plates (BD Biosciences, Bedford, Mass.) using a Multidrop® dispenser (ThermoScientific, Waltham, Mass.). On the day of the experiment, growth medium was removed, and the no-wash FLIPR® Calcium-4 dye (λEX=470-495 nm, λEM=515-575 nm; Molecular Devices, Sunnyvale, Calif.) was added to each well using the Multidrop® dispenser. Cells were incubated for 90-120 minutes in the dark. Compounds were dissolved in DMSO to prepare a 10 mM stock solution. The intensity of the fluorescence was captured and digitally transferred to an interfaced PC. The peak increase in fluorescence over baseline (relative fluorescence units) was calculated and expressed as the percentage of the maximal 2-APB (2-aminoethoxyldiphenyl borate) response (in the absence of compound).
(Calcium assays in cells follow changes in intracellular calcium, usually with a dye or a luminescent sensor.)
With `O[C@@H](c1ncccn1)C1(c2ccc(C(F)(F)F)cc2)CCC1` [Example 42, (R)-pyrimidin-2-yl{1-[4-(trifluoromethyl)phenyl]cyclobutyl}methanol], the IC50 fell in the range of 1.1 to 5 µM.
For the molecule `OC(c1ccccn1)C1(c2ccc(C(F)(F)F)c(F)c2)CCC1` (centres unmarked) [Example 17, {1-[3-fluoro-4-(trifluoromethyl)phenyl]cyclobutyl}(pyridin-2-yl)methanol], the IC50 was in the range of 1.1 to 5 µM.
As for `CS(=O)(=O)c1ccc(C2(C(O)c3ccccn3)CCC2)cc1` (centres unmarked) [Example 16, {1-[4-(methylsulfonyl)phenyl]cyclobutyl}(pyridin-2-yl)methanol], the half-inhibitory concentration (IC50) was in the range of 5.1 to 20 µM.
In the case of `O[C@H](c1ccccn1)C1(c2ccc(C(F)(F)F)cc2F)CCC1` [Example 27, (S)-{1-[2-fluoro-4-(trifluoromethyl)phenyl]cyclobutyl}(pyridin-2-yl)methanol] it was 0.501 to 1 µM; in that of `CC(c1cccc(C(F)(F)F)c1)C1(C(O)c2ccccn2)CCC1` (centres unmarked) [Example 54, pyridin-2-yl(1-{1-[3-(trifluoromethyl)phenyl]ethyl}cyclobutyl)methanol], 5.1 to 20 µM; in that of `OC(c1ccccn1)C1(c2ccc(-c3ccccc3)cc2)CCC1` (centres unmarked) [Example 22, [1-(1,1′-biphenyl-4-yl)cyclobutyl](pyridin-2-yl)methanol], 5.1 to 20 µM.
Regarding `OC(c1ncccn1)C1(c2ccccc2F)CCC1` (centres unmarked) [Example 32, [1-(2-fluorophenyl)cyclobutyl](pyrimidin-2-yl)methanol], the IC50 lay in the range of 5.1 to 20 µM.
The figure for `O[C@H](c1ncccn1)C1(c2ccc(C(F)(F)F)cc2)CCC1` [Example 41, (S)-pyrimidin-2-yl{1-[4-(trifluoromethyl)phenyl]cyclobutyl}methanol] is 5.1 to 20 µM; for `OC(c1ccccn1)C1(c2cc(F)cc(C(F)(F)F)c2)CCC1` (centres unmarked) [Example 14, {1-[3-fluoro-5-(trifluoromethyl)phenyl]cyclobutyl}(pyridin-2-yl)methanol] it is 5.1 to 20 µM; for `OC(c1ccccn1)C1(c2ccncc2)CCC1` (centres unmarked) [Example 21, pyridin-2-yl(1-pyridin-4-ylcyclobutyl)methanol] it is 5.1 to 20 µM.
Turning to `OC(c1ccccn1)C1(c2cccnc2)CCC1` (centres unmarked) [Example 20, pyridin-2-yl(1-pyridin-3-ylcyclobutyl)methanol], the IC50 is 5.1 to 20 µM.
“[1-(4-methylbenzyl)cyclobutyl](pyridin-2-yl)methanol [Example 52]”: the IC50 lay in the range of 1.1 to 5 µM.
As for `OC(c1ccccn1)C1(c2ccccn2)CCC1` (centres unmarked) [Example 19, pyridin-2-yl(1-pyridin-2-ylcyclobutyl)methanol], the IC50 is 5.1 to 20 µM.
In the case of `OC(c1ncccn1)C1(c2ccc(F)cc2)CCC1` (centres unmarked) [Example 34, [1-(4-fluorophenyl)cyclobutyl](pyrimidin-2-yl)methanol] it was 5.1 to 20 µM.
